What all share (assay type): cell-based
The subject of assay [1] is human degenerative disc NP cells. The experiment in a line: Western blotting of human degenerative disc NP cells. As to conditions: IL-1β and TNFα, Western blots, FIG. 2h. The procedure:
(§1) After euthanasia, healthy rat lumbar/caudal spine IVDs, injured tail discs and bovine caudal IVD NPs were removed aseptically and the nucleus pulposus (NP) was removed separately and enzymatically digested according to methods established by the present inventors^16. Similarly, human degenerative disc NPs were enzymatically digested using Pronase (0.4%, 1 hr at 37° C.) followed by Collagenase II treatment (0.015%, O/N, 37° C.). The following day, the cells were filtered with a 70p cell strainer and cultured within a hypoxic incubator (NuAire, MN, USA) in 3.5% O2, 5% CO2, in Advanced Dulbecco's modified Eagle's medium (ADMEM) supplemented with 8% fetal bovine serum (FBS) and penicillin and streptomycin (100 U/mL). For treatments, the cells were either cultured in serum free ADMEM (no treatment controls) or treated with interleukin-1β (IL-1β, 10 ng/mL), tumor necrosis factor-alpha (TNFα, 50 ng/mL), connective tissue growth factor (CTGF, 10-100 ng/mL), Wnt-inducible soluble protein 2 (WISP2, 10-100 ng/mL) or transforming growth factor beta 1 (TGFβ1, 5-20 ng/mL) for various time points under hypoxic conditions.
(§2) Equal amounts of whole cell or tissue lysates prepared using RIPA lysis buffer were subjected to Western blotting as described earlier^18,19. Total lysates (30 μg) were resolved on 10% sodium dodecyl sulphate-polyacrylamide gels (SDS-PAGE) under reducing conditions and then proteins were electro-transferred onto polyvinyledendifluoride (PVDF) membranes (BioRad, CA). After blocking with 5% non-fat powdered milk in Tris-buffered saline (TBS, 0.1 M, pH=7.4), blots were incubated with rabbit or goat polyclonal/mouse monoclonal primary antibodies at 4° C. overnight. […] Blots were washed three times with TTBS for 15 minutes and protein bands were detected by the enhanced chemiluminescence method (BioRad, CA) on Kodak Hyperfilm.

In assay [2] the test system is rat NP cells. The experiment in a line: Western blotting of rat NP cells treated with IL-1β/TNFα with or without inhibitors or growth factors. The procedure: as §1, §2
For orientation: A western blot detects proteins with antibodies after separation by electrophoresis.

Assay [3] concerns rat NP cells. The experiment in a line: ECM and cell adhesion molecule gene array, real time quantitative PCR. Particulars: 24 hrs, vs no treatment control. As for the experimental part: To determine the effect of IL-1β and TNFα on ECM turnover, rat NP cells were treated with IL-1β alone or in combination with TNFα for 24 hrs and real time quantitative PCR was performed using the ECM and cell adhesion molecule gene arrays (includes 84 genes).
as §1
Total RNA from healthy and treated (IL-1β alone or in combination with TNFα) rat NP cells, were isolated using RNAeasy extraction kit (Cat #74134, Qiagen) and quantified using a Nanodrop spectrophotometer. Total RNA (˜400 ng) was reverse-transcribed using RT^2 First Strand Kit (Cat #330401, Qiagen) following the manufacturer's instructions for preparing cDNA. To evaluate the effect of IL-1β alone or in combination with TNFα on extra-cellular matrix (ECM) genes in rat NP cells, the RT^2 Profiler™ PCR Array Rat Extracellular Matrix & Adhesion Molecules (PARN-013Z, Qiagen) was used and compared with no treatment controls (NTC) in 3 independent experiments using real time PCR performed on ABI 7900HT 384-well Fast block machine. Data analysis including calculation of ΔΔCt values, fold changes and p-values was carried out using software available online (https://www.qiagen.com/ca). Total RNA was isolated from human degenerative disc NP cells (H1/H2) treated with CTGF, TGFβ1, CTGF+TGFβ1 to evaluate their effect on collagen 2, HAPLN1, versican and thrombospondin 1 using gene specific primers. Similarly, RNA was isolated from human NP cells were treated with […] alone or in combination TNFα in presence of CTGF and TGFβ1 to determine their effect on Cox2 and MMP-13 expression using qRT-PCR.

Where [4] appears, read: rat NP cells treated with IL-1β and TNFα, Western blot, FIG. 2f-2g.

The source of these data is patent US12465618B2, “Compositions and methods for degenerative disc regeneration” (University Health Network, priority 2015, dated 2025).

Like-named read-outs stand apart in the source and are kept apart here.

Take `Cc1ccc(S(=O)(=O)/C=C/C#N)cc1` [BAY-11-7082]: the “cytokine induced Cox2 expression in presence of inhibitor” value in assay [1] is reported as “decreased expression”. Further, the “IL-1β and TNFα induced MMP-3, MMP-13 and Cox2 expression in presence of inhibitor” value in assay [2] (setting [4]) is on record as “Reduced expression”.

Take `C[S+]([O-])c1ccc(-c2nc(-c3ccncc3)c(-c3ccc(F)cc3)[nH]2)cc1` (stereo not shown) [SB203580]: the “cytokine induced Cox2 expression in presence of inhibitor” value in assay [1] was “decreased expression”. Also, the “MMP-3, MMP-13 and Cox2 expression in presence of inhibitor” value in assay [2] (IL-1β treated rat NP cells, Western blot, FIG. 2f) is given as “reduced expression”.

Turning to `C[C@H](NC(=O)/C(C#N)=C/c1cccc(Br)n1)c1ccccc1` [STAT3 inhibitor], the “cytokine induced Cox2 expression in presence of inhibitor” value in assay [1] was “decreased expression”. Besides, in assay [2] (setting [4]), the “IL-1β and TNFα induced MMP-3, MMP-13 and Cox2 expression in presence of inhibitor” value is “Reduced expression”.

`N#CC(=C(/N)Sc1ccccc1N)/C(C#N)=C(\N)Sc1ccccc1N` [U0126]: the “IL-1β and TNFα induced MMP-3, MMP-13 and Cox2 expression in presence of inhibitor” value in assay [2] is “failed to induce”.

Consider `COC[C@H]1OC(=O)c2coc3c2[C@@]1(C)C1=C(C3=O)[C@@H]2CCC(=O)[C@@]2(C)C[C@H]1OC(C)=O` [Wortamanin], for which the “IL-1β and TNFα induced MMP-3, MMP-13 and Cox2 expression in presence of inhibitor” value in assay [2] (setting [4]) was “reduced expression of MMP-3 and MMP-13 only”.

As for “IL1β: Human recombinant pro-inflammatory cytokine interleukin-1 beta, purchased from Peprotech, used at 10 ng/mL”, in assay [3], the “Fold regulation (IL1β vs NTC), gene Adamts8” value amounted to 139.39; the “Fold regulation (IL1β vs NTC), gene Cd44” value came out at 23.57; the “Fold regulation (IL1β vs NTC), gene Cdh3” value is listed as −6.18; the “Fold regulation (IL1β vs NTC), gene Col3a1” value is −3.80. Also, in assay [3], the “Fold regulation (IL1β vs NTC), gene Col4a1” value amounted to 4.24; the “Fold regulation (IL1β vs NTC), gene Col4a2” value is 3.20; the “Fold regulation (IL1β vs NTC), gene Ctgf” value is recorded as −2.40; the “Fold regulation (IL1β vs NTC), gene Emilin1” value is 4.42. Besides, in assay [3], the “Fold regulation (IL1β vs NTC), gene Hapln1” value is given as −6.01; the “Fold regulation (IL1β vs NTC), gene Icam1” value is given as 6.56; the “Fold regulation (IL1β vs NTC), gene Itga3” value was determined as 9.22; the “Fold regulation (IL1β vs NTC), gene Itga5” value turned out to be 6.23. Besides, in assay [3], the “Fold regulation (IL1β vs NTC), gene Itgav” value is recorded as 2.14; the “Fold regulation (IL1β vs NTC), gene Lamc1” value stood at 4.24; the “Fold regulation (IL1β vs NTC), gene MMP3” value turned out to be 68.04; the “Fold regulation (IL1β vs NTC), gene MMP9” value is recorded as 1252.77. In assay [3], the “Fold regulation (IL1β vs NTC), gene MMP13” value was 36.82; the “Fold regulation (IL1β vs NTC), gene Mmp11” value was −3.86; the “Fold regulation (IL1β vs NTC), gene Ncam1” value is on record as −2.00; the “Fold regulation (IL1β vs NTC), gene Thbs1” value is recorded as −3.35. For the same molecule, in assay [3], the “Fold regulation (IL1β vs NTC), gene Thbs2” value was −4.14 and the “Fold regulation (IL1β vs NTC), gene Timp1” value is on record as 5.04. The “phosphorylation levels of c-Raf (S259), p42/44 (Thr202/Tyr204) and p38MAPK (Thr180/Tyr182)” value in assay [2] (rat NP cells, 5-60 minutes, no significant change in total protein) was “increased phosphorylation levels”.
